This is an account of results in ChEMBL document CHEMBL1201862, “PubChem BioAssay data set” (2004).

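Test compounds were applied to cells in 96-well plates for 48 hours at 5 doses. GI50 is the concentration that inhibits growth by half.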 The source made the active and inactive calls. Cut-off read from the data, not from the text of the source: active = GI50 up to about 1.1 µM and inactive = higher. Where a SMILES comes first, the peptide text is derived from it. The star is where a group is joined. ONb = O=[N+]([O-])c1ccc(CO*)cc1; Boc = CC(C)(C)OC(=O)*

Holding throughout (assay): NCI anticancer screen, dose series, 48 h
In experiment [1] the test system is A498.
The test system of experiment [2] is COLO 205.
Experiment [3] deals with DU-145.
For experiment [4], the system named is HCT-15.
Experiment [5] relates to Hs-578T.
Experiment [6] relates to KM12.
The subject of experiment [7] is MDA-MB-231.
Experiment [8] deals with Malme-3M.
Experiment [9] concerns NCI-H226.
Experiment [10] concerns NCI-H460.
For experiment [11], the system named is NCI/ADR-RES.
The test system of experiment [12] is OVCAR-8.
In experiment [13] the test system is SK-OV-3.
The subject of experiment [14] is SN12C.
The test system of experiment [15] is SNB-19.
Experiment [16] has as its system SW-620.
In experiment [17] the test system is U-251.
Experiment [18] has as its system CAKI-1.
Experiment [19] deals with CCRF-CEM.
In experiment [20] the test system is SR.

For `C=C1[C@@H]2CCC3[C@]4(C)C(CC[C@@]5(C)C(=O)O[C@H](O)[C@@H]45)[C@H](O)[C@]3(C2)[C@H]1OC1OC(CO)C(O)C(O)C1O` (some centres undefined), the GI50 in experiment [1] is > 50 µM (inactive); in experiment [2], > 50 µM (inactive); in [3], > 50 µM (inactive); in experiment [4] it was more than 50 µM; in experiment [5], > 50 µM (inactive); in [6] it was > 50 µM (inactive). The GI50 in experiment [7], in experiment [8], in [9], in experiment [10], in experiment [11] and in [12] was > 50 µM (inactive) each time. Further, the GI50 in experiment [13], in experiment [14], in [15], in experiment [16] and in experiment [17] was > 50 µM (inactive) throughout.
On to `COC(=O)c1cc(-c2ccc(-c3ccc(O)cc3)cc2)cc(-c2ccc(-c3ccc(O)cc3)cc2)c1`, for which the GI50 in experiment [1] was 16.4 µM (inactive); in [18] it was 16 µM (inactive); in [19] it was 14.8 µM (inactive); in [2] it was 12.6 µM (inactive); in experiment [4], 7.74 µM; in experiment [6], 2.17 µM (inactive). Also, the GI50 was 17.9 µM (inactive) in experiment [7]; 12.7 µM (inactive) in experiment [9]; 17.8 µM (inactive) in [10]; 11.7 µM (inactive) in experiment [11]; 15.6 µM (inactive) in experiment [13]; 13.4 µM (inactive) in experiment [14]. Also, the results for the GI50 in [15] and in [16] were 15.5 µM (inactive) and 7.11 µM (inactive), respectively.
On to `CC1(C)CC(=O)C(CC2C(=O)c3ccccc3C2=O)C(=O)C1`, for which the GI50 was > 100 µM (inactive) in experiment [1]; > 100 µM (inactive) in experiment [18]; > 100 µM (inactive) in experiment [19]; > 100 µM (inactive) in experiment [2]; more than 100 µM in experiment [4]; > 100 µM (inactive) in experiment [6]. For the same compound, the GI50 in [8], in experiment [9], in [10], in [12], in experiment [13] and in experiment [14] was > 100 µM (inactive) throughout. Moreover, the GI50 in [15] was > 100 µM (inactive); in experiment [20], 53.7 µM (inactive); in experiment [16], > 100 µM (inactive); in experiment [17], > 100 µM (inactive).
Regarding `CSc1cc(-c2cccs2)sc1-c1cc(SC)c(-c2sc(-c3sc(-c4cccs4)cc3SC)cc2SC)s1`, the GI50 was > 100 µM (inactive) in experiment [1]; > 100 µM (inactive) in experiment [18]; > 100 µM (inactive) in [19]; > 100 µM (inactive) in experiment [2]; > 100 µM (inactive) in experiment [3]; more than 100 µM in experiment [4]. Further, the GI50 in [5], in experiment [6], in [7], in experiment [8], in experiment [10] and in [11] was > 100 µM (inactive) each time. The GI50 in [12], in experiment [13], in experiment [14], in experiment [15], in experiment [16] and in [17] was > 100 µM (inactive) each time.
Regarding `COc1ccc(C2SCC(=O)N2NC(=O)c2ccc(NC(C)=O)cc2)cc1` (centres undefined), the GI50 in experiment [1] was > 100 µM (inactive); in experiment [2] it was > 100 µM (inactive); in experiment [3], > 100 µM (inactive); in experiment [4] it was more than 100 µM; in experiment [5], > 100 µM (inactive); in experiment [6] it was > 100 µM (inactive). In addition, the GI50 in [7] was 26.5 µM (inactive); in experiment [9], > 100 µM (inactive); in [10], > 100 µM (inactive); in experiment [11], > 100 µM (inactive); in experiment [12], > 100 µM (inactive); in experiment [13] it was > 100 µM (inactive). In addition, the GI50 in experiment [14] was > 100 µM (inactive); in [15], > 100 µM (inactive); in experiment [16], > 100 µM (inactive); in [17] it was 40.6 µM (inactive).
Regarding `CCOC(=O)c1c[nH]cc1-c1cn(S(=O)(=O)c2ccccc2)cc1C`, the GI50 in experiment [1] was > 10 µM (inactive); in [18] it was 17.7 µM (inactive); in experiment [19] it was 24.9 µM (inactive); in experiment [2] it was 20.1 µM (inactive); in experiment [3], 50.7 µM (inactive); in experiment [4] it was 22.9 µM. Moreover, the GI50 in experiment [5] is 11.9 µM (inactive); in [6], 19.6 µM (inactive); in [7], 20.5 µM (inactive); in [8], 15 µM (inactive); in experiment [10], 18.4 µM (inactive); in experiment [11], 22.2 µM (inactive). Further, the GI50 in experiment [12] is 28.7 µM (inactive); in experiment [13] it was 25.9 µM (inactive); in experiment [14], 25.2 µM (inactive); in experiment [15], 31.8 µM (inactive); in experiment [16], > 10 µM (inactive); in experiment [17], 25.6 µM (inactive).
For the compound `CSc1ncnc2c1ncn2CCC(=O)O`, the GI50 in experiment [1], in experiment [18], in [19], in experiment [2], in experiment [3] and in experiment [6] was > 100 µM (inactive) each time. Also, the GI50 in [7], in [8], in experiment [9], in experiment [10], in [11] and in experiment [12] was > 100 µM (inactive) throughout. Besides, the GI50 in experiment [13], in experiment [14], in experiment [15], in experiment [20] and in experiment [16] was > 100 µM (inactive) each time.
For the compound `CC(=O)Nc1ccccc1-c1cnc2ccccc2n1`, the GI50 in experiment [1] was > 100 µM (inactive); in experiment [18], > 100 µM (inactive); in experiment [19], > 100 µM (inactive); in experiment [2], > 100 µM (inactive); in [4], more than 100 µM; in [6], > 100 µM (inactive). The GI50 in [8], in experiment [9], in experiment [10], in experiment [12], in [13] and in experiment [14] was > 100 µM (inactive) each time. In addition, the GI50 in [15], in [20], in experiment [16] and in experiment [17] was > 100 µM (inactive) in each case.
Turning to `CC(C)=CCC/C(C)=C/CCC(C(=O)COCc1ccccc1)P1(=O)OC(C)(C)CN1C(C)(C)C` (centres undefined), the GI50 is > 100 µM (inactive) in [18]; 30.6 µM (inactive) in experiment [19]; 42.2 µM (inactive) in [2]; 81.7 µM (inactive) in experiment [3]; 48.6 µM in experiment [4]; 36 µM (inactive) in experiment [6]. In addition, the GI50 in experiment [7] is > 100 µM (inactive); in [9], 30.6 µM (inactive); in experiment [10], 52.2 µM (inactive); in experiment [11], 31.5 µM (inactive); in [13], > 100 µM (inactive); in [14], > 100 µM (inactive). The GI50 in [15] was > 100 µM (inactive); in [20] it was 21.8 µM (inactive); in experiment [16] it was > 100 µM (inactive); in experiment [17], > 100 µM (inactive).
`Cc1c(C(=O)CSc2nc3ccccc3[nH]2)c(=O)n(-c2ccccc2)n1C`: the GI50 was > 100 µM (inactive) in experiment [1]; > 100 µM (inactive) in experiment [18]; > 100 µM (inactive) in [19]; > 100 µM (inactive) in experiment [2]; more than 100 µM in experiment [4]; > 100 µM (inactive) in [6]. The GI50 in experiment [8] is 34.9 µM (inactive); in experiment [9] it was > 100 µM (inactive); in [10] it was > 100 µM (inactive); in [12], > 100 µM (inactive); in experiment [13], > 100 µM (inactive); in experiment [14], > 100 µM (inactive). Moreover, the GI50 in experiment [15], in experiment [20], in experiment [16] and in experiment [17] was > 100 µM (inactive) each time.
In the case of `CC(C)(C)n1c(=O)n(-c2ccccc2)n(C(C)(C)C)c1=O`, the GI50 is > 100 µM (inactive) in [1]; > 100 µM (inactive) in [18]; > 100 µM (inactive) in experiment [19]; > 100 µM (inactive) in experiment [2]; more than 100 µM in [4]; > 100 µM (inactive) in [5]. Moreover, the GI50 in experiment [6], in experiment [7], in experiment [8], in experiment [9], in [10] and in [11] was > 100 µM (inactive) throughout. Besides, the GI50 in [12], in experiment [13], in [14], in experiment [15], in experiment [20] and in experiment [16] was > 100 µM (inactive) throughout. In experiment [17], the GI50 is > 100 µM (inactive).
Take `CC(C)CC(NC(=O)OC(C)(C)C)C(=O)NC(CCC(=O)OCc1ccc([N+](=O)[O-])cc1)C(=O)OCc1ccc([N+](=O)[O-])cc1` (stereo not drawn) (Boc-Leu-Glu(ONb)-ONb; configuration not given here): the GI50 was 40.2 µM (inactive) in [1]; > 100 µM (inactive) in experiment [18]; 19.8 µM (inactive) in [19]; 17.4 µM (inactive) in [2]; 13.5 µM (inactive) in experiment [3]; more than 100 µM in experiment [4]. Further, the GI50 in [7] was > 100 µM (inactive); in experiment [8], > 100 µM (inactive); in experiment [10], 22 µM (inactive); in [11] it was > 100 µM (inactive); in experiment [12] it was 37.1 µM (inactive); in experiment [14], > 100 µM (inactive). The GI50 was > 100 µM (inactive) in experiment [15], 13.8 µM (inactive) in experiment [20], 50.9 µM (inactive) in [16] and 27.6 µM (inactive) in experiment [17].
